Measurements: patent US20190201377A1, “METHODS AND COMPOSITIONS FOR TREATMENT OF LIPID STORAGE DISORDERS” (Neurotrope BioScience, Inc., priority 2014, published 2019)

Experiments:
NPC3-SV cells [1] = assay type: cell-based, Human
NPC3SV cells = assay type: cell-based, Human
human NPC1 3123 cells [2] = assay: Sphingolipid transport by BODIPY-LacCer staining; assay type: cell-based; settings: 48 hours
Excerpt: (§1) For filipin staining in transfected cells, cells were transfected with PKC or Rab9 using Fugene 6 according to the manufacturer's recommendations. After 48 hrs, cells were stained with filipin as we have previously described [3 7]. Cells were mounted onto slides using Fluoromount-G (Southern Biotech, Birmingham, Ala.) and analyzed on a Nikon Eclipse microscope fitted with a charge-coupled-device camera (Nikon, Melville, N.Y.). Images were acquired with MetaVue software and then deconvoluted using AutoDeblur software from AutoQuant Imaging, Inc (Troy, N.Y.). For quantitation of filipin fluorescence, cells were seeded at 3×10^5 cells/well in 6-well dishes and allowed to settle overnight, after which the medium was replaced with medium containing 10% lipoprotein deficient serum (LPDS) for 4 days. Cells were incubated with oleic/linoleic acids for 48 hours, DCPLA/DHA for 24 hrs, or diazoxide for 72 hrs before fixing and staining with filipin as we have previously described. Images were acquired using the same exposure time for all samples. Fluorescence intensity was determined using the integrated intensity function of MetaVue software; at least 150 cells were quantitated for each sample and each experiment was repeated 3 times. For analysis of sphingolipid transport, cells were incubated with oleic/linoleic acids, DCP-LA, or PMA for 48 hours before BODIPY-LacCer staining was performed as previously described.
To further confirm the positive effects of DCP-LA and fatty acids on the NPC1 phenotype, human NPC1 cells were treated with DCP-LA, fatty acids, or PMA to activate PKCs. […] Following absorption to the plasma membrane, the LacCer sphingolipid enters normal cells via endocytosis and eventually reaches the trans-Golgi network (TGN; [30]). […] Human NPC1 cells treated as indicated in FIG. 7 show a dramatic improvement in lipid transport with the BODIPY-LacCer effectively reaching the TGN (FIG. 7; arrows) compared to untreated cells that show only punctate, endosomal fluorescence (FIG. 7A).

NPC3-SV cells [3] = assay: Stored cholesterol by filipin staining in NPC3-SV cells; assay type: cell-based, Human; settings: for clearance of cholesterol from NPC1 cells: 48 h, FIG. 8, different drug concentrations; for stored cholesterol levels: 72 h, FIG. 9
Method: (§2) Cells are plated in 6-well dishes and treated with the appropriate compound (dissolved in DMSO) at the indicated dose daily for 48 hrs. Control cells receive DMSO. After 48 hrs cells are transferred to cover slips with fresh compound and grown for another 24 hrs. Cover slips are collected and processed for microscopy.
(§3) For detection of unesterified cholesterol in lysosomes, cells were fixed in formalin for 30 min at 4° C., washed 2×, 5 min in 0.9% NaCl, incubated for 45 min with 0.01% filipin in PBS at room temperature, and then washed 2×, 5 min. Fluorescence was observed using a Nikon Eclipse fluorescence microscope (Nikon, Melville, N.Y.) equipped with a CCD camera. Fluorescence signals were quantified using Nikon's imaging and quantitation software package NIS Elements, v.3.22.

human NPC24-SV cells [4] = assay: Cholesterol accumulation by filipin staining in NPC24-SV cells; assay type: cell-based; settings: for effect in cholesterol assay: NPC24-SV cells, FIG. 13
Method: as §2, §3

M12 NPC1 CHO cells [5] = assay: Cholesterol storage by filipin staining in NPC1 CHO (M12) cells; assay type: cell-based, Chinese hamster; settings: for filipin fluorescence, % of levels in untreated cells: oleic/linoleic acids for 48 hours, M12 CHO cells
Method: as §1, with “The human wild-type fibroblast (GM05387), NPC1o fibroblast (GM09341), and NPC1 fibroblast (GM03123) cell lines were obtained from Coriell Cell Repositories (Camden, N.J.). The M12 Chinese hamster ovary (CHO) cell line and its wild-type parental line were obtained and cultured. Fibroblast cell lines were cultured in DMEM, and CHO cells were cultured in DMEM/F12 (50:50) medium, supplemented with 10% FBS, 2 mM L-glutamine, and 50 μg/ml gentamicin in a humidified incubator at 37° C. with 5% CO2. For filipin” for “For filipin”, “48 hours, […] for 24” for “48 hours, DCPLA/DHA for 24”

NPC cells = settings: PMA treatment of NPC cells, earlier study [5]; cited from earlier work
C57 NPC1 mice = assay: Treatment of C57 NPC1 mice, life span; assay type: in vivo, mouse
Method: A total of […] C57B16 NPC1 mice, mixed sex, were used. These mice were separated into […], Groups 1-5.
Bryostatin 1 (purity ≥:95%) from Aphios (Woburn, Mass.), 1 vial 2 mg, was solubilized in a 5% DMSO, 20% Solutol and 75% Saline solution and used as the study drug. The negative (vehicle) control is a 5% DMSO, 20% Solutol and 75% Saline solution. DCP-LA from Sigma-Aldrich: 5 mg oil/vial was used as an additional in vitro active compound. Bryostatin 1 (API) was stored at or below −20° C. and formulated as needed. The formulated bryostatin 1 was stored at 2° to 8° C. for less than 24 hour(s). The DCP-LA and the vehicle controls were stored at 2°-8° C.
The stock solution of bryostatin 1 is 1 Omg/ml in DMSO, which is kept at −80° C. in aliquots. The dosing formulation is made by diluting the stock first in DMSO, then adding solutol, and lastly saline-with more insoluble compounds, adding the drug stock to complete vehicle will cause the compound to come out of solution, so we make formulations stepwise. The dosing volume is always 100 μl. Mice weigh approximately 20 g.
The mice are dosed twice weekly (Mon and Thu) starting at 30 days for up to 150 days.
C57 NPC1 mice have an average life span of ˜110 days. By Day 70 mice reach an average weight of 18-22 grams. Untreated NPC1 mice develop ataxia and will begin to lose weight at ˜70 days (see FIG. 17). Ataxia (or lack of voluntary muscle control) is a clinical feature of NPC1 mice, which may be described as shaking. Treatment will be initiated at ˜30 days of age, average NPC mouse weight of 10 g. If the drug is efficacious injections will continue past day 70-80. An extension of life of about 20-30% will mean that animals will need to be treated up to day 130-150.

human NPC24-SV cells [6] = assay: Glycosphingolipid accumulation by VTB staining in NPC24-SV cells; assay type: cell-based
human NPC1 3123 cells [7] = assay: Cholesterol storage by filipin staining in human NPC1 3123 fibroblasts; assay type: cell-based; settings: oleic/linoleic acids for 48 hours
Method: The human wild-type fibroblast (GM05387), NPC1o fibroblast (GM09341), and NPC1 fibroblast (GM03123) cell lines were obtained from Coriell Cell Repositories (Camden, N.J.). The M12 Chinese hamster ovary (CHO) cell line and its wild-type parental line were obtained and cultured. Fibroblast cell lines were cultured in DMEM, and CHO cells were cultured in DMEM/F12 (50:50) medium, supplemented with 10% FBS, 2 mM L-glutamine, and 50 μg/ml gentamicin in a humidified incubator at 37° C. with 5% CO2. For filipin staining in transfected cells, cells were transfected with PKC or Rab9 using Fugene 6 according to the manufacturer's recommendations. After 48 hrs, cells were stained with filipin as we have previously described [3 7]. Cells were mounted onto slides using Fluoromount-G (Southern Biotech, Birmingham, Ala.) and analyzed on a Nikon Eclipse microscope fitted with a charge-coupled-device camera (Nikon, Melville, N.Y.). […] For quantitation of filipin fluorescence, cells were seeded at 3×10^5 cells/well in 6-well dishes and allowed to settle overnight, after which the medium was replaced with medium containing 10% lipoprotein deficient serum (LPDS) for 4 days. […] Fluorescence intensity was determined using the integrated intensity function of MetaVue software; at least 150 cells were quantitated for each sample and each experiment was repeated 3 times. […]

M12 NPC1 CHO cells [8] = assay: Cholesterol esterification assay in M12 NPC1 CHO cells; assay type: cell-based, Chinese hamster; settings: for esterification levels over untreated cells: 50 μg/ml fatty acid for 2 days followed by expression of PKC ε
Method: The preparation of [3H] oleate substrate and esterification assays were performed as previously described. Cells were treated with 50 μg/ml fatty acid for 2 days and then transfected with […] or PKCε for 24 hrs before esterification assays. All values were generated in triplicate and normalized for total cell protein.

SMILES: CCCCCC1CC1CC1CC1CCCCCCCC(=O)O (stereo not shown) [DCP-LA, 8-[2-(2-pentylcyclopropylmethyl)-cyclopropyl]-octanoic acid]
- stored glycosphingolipid levels (VTB) (NPC3-SV cells [1]): decrease stored glycosphingolipid levels
- ganglioside transport block (CTB) (NPC3SV cells; DCPLA, concentration not given, NPC3SV cells, FIG. 12): release the ganglioside transport block
- BODIPY-LacCer transport to the trans-Golgi network (human NPC1 3123 cells [2]; 20 μM DCP-LA): the lipid can be seen in the TGN
- clearance of cholesterol from NPC1 cells (NPC3-SV cells [3]): able to induce clearance of cholesterol
- stored cholesterol levels (NPC3-SV cells [3]): decrease stored cholesterol levels
- filipin accumulation (human NPC24-SV cells [4]; DCPLA, concentration not given, NPC24-SV cell line, FIG. 11): decrease filipin accumulation
- reduction of cholesterol storage (filipin intensity) (M12 NPC1 CHO cells [5]; 100 μM DCP-LA, 24 hrs (overnight)): ~50%

SMILES: CC/C=C\C/C=C\C/C=C\C/C=C\C/C=C\C/C=C\CCC(=O)O [DHA, docosahexanoic acid]
- reduction of cholesterol storage (filipin intensity) (M12 NPC1 CHO cells [5]; 10 μM DHA, 24 hrs (overnight)): ~50%

SMILES: CCCCCCCCCCCCCC(=O)O[C@@H]1[C@@H](C)[C@@]2(O)[C@@H](C=C(CO)C[C@]3(O)C(=O)C(C)=C[C@@H]23)[C@@H]2C(C)(C)[C@]12OC(C)=O [PMA, phorbol-12-myristate-13-acetate]
- NPC lipid storage phenotype (NPC cells): ameliorated the NPC lipid storage phenotype
- BODIPY-LacCer transport to the trans-Golgi network (human NPC1 3123 cells [2]; 100 nM PMA): the lipid can be seen in the TGN

SMILES: CCC/C=C/C=C/C(=O)O[C@H]1/C(=C/C(=O)OC)C[C@H]2C[C@H]([C@@H](C)O)OC(=O)C[C@H](O)C[C@@H]3C[C@H](OC(C)=O)C(C)(C)[C@](O)(C[C@@H]4C/C(=C/C(=O)OC)C[C@H](/C=C/C(C)(C)[C@]1(O)O2)O4)O3 [bryostatin 1]
- glycosphingolipid accumulation (VTB) (NPC3-SV cells [1]): statistically significant effectiveness in decreasing the glycosphingolipid accumulation
- clearance of endosome-trapped cholera toxin (CTB) (NPC3SV cells): able to clear the endosome-trapped cholera toxin (CTB)
- clearance of cholesterol from NPC1 cells (NPC3-SV cells [3]): able to induce clearance of cholesterol
- stored cholesterol levels (NPC3-SV cells [3]): most active compound showing activity in the nanomolar concentration range
- age that mice lived past (C57 NPC1 mice; 10 μg/kg IP twice weekly starting at 30 days): > 100 days
- age that mice lived past (C57 NPC1 mice; 20 μg/kg IP twice weekly starting at 30 days): > 100 days
- age that mice lived past (C57 NPC1 mice; 30 μg/kg IP twice weekly starting at 30 days): > 100 days
- effect in sphingolipid assay (human NPC24-SV cells [6]; 0.1 nM, FIG. 14): no effect
- effect in sphingolipid assay (human NPC24-SV cells [6]; 1 nM, FIG. 14, increases with increasing concentration): statistically significant
- effect in cholesterol assay (human NPC24-SV cells [4]; 0.1 nM): no effect
- effect in cholesterol assay (human NPC24-SV cells [4]; 1 nM, increases with increasing concentration): statistically significant
- cholesterol clearance (human NPC24-SV cells [4]; 10 nM bryostatin 1, NPC24-SV cell line, FIG. 11): able to effect cholesterol 2 clearance
- concentration showing a positive therapeutic effect for human NPC1 disease cells (human NPC24-SV cells [4]; summary of the cholesterol and glycosphingolipid assays of Example 2): 10 to 100 nM

SMILES: CC1=NS(=O)(=O)c2cc(Cl)ccc2N1 [diazoxide]
- clearance of cholesterol from NPC1 cells (NPC3-SV cells [3]): able to induce clearance of cholesterol
- reduction of cholesterol storage (filipin intensity) (M12 NPC1 CHO cells [5]; 100 μM diazoxide, 72 hrs): ~50%

SMILES: CCCCC/C=C\C/C=C\CCCCCCCC(=O)O [linoleic acid]
- BODIPY-LacCer transport to the trans-Golgi network (human NPC1 3123 cells [2]; 2 μg/ml linoleic acid): the lipid can be seen in the TGN
- filipin fluorescence, % of levels in untreated cells (human NPC1 3123 cells [7]): ~75%
- filipin fluorescence, % of levels in untreated cells (M12 NPC1 CHO cells [5]): ~75%
- increase of cholesterol esterification compared to untreated M12 cells (M12 NPC1 CHO cells [8]; 50 μg/ml fatty acid for 2 days): greater than 2 fold
- esterification levels over untreated cells (M12 NPC1 CHO cells [8]): ~3.5 fold

SMILES: CCCCCCCC/C=C\CCCCCCCC(=O)O [oleic acid, cis-9-octadecenoic acid]
- BODIPY-LacCer transport to the trans-Golgi network (human NPC1 3123 cells [2]; 2 μg/ml oleic acid): the lipid can be seen in the TGN
- filipin fluorescence, % of levels in untreated cells (human NPC1 3123 cells [7]): ~75%
- filipin fluorescence, % of levels in untreated cells (M12 NPC1 CHO cells [5]): ~75%
- esterification levels over untreated cells (M12 NPC1 CHO cells [8]): ~3.5 fold
